The values that follow come from patent publication US10874670B2, “Substituted fused heteroaromatic compounds as kinase inhibitors and the use thereof” (IMPACT THERAPEUTICS, INC., priority 2017, dated 2020).

A word on the IC50: it is the point on the concentration scale where inhibition reaches its midpoint.

The target of one test is ATM enzyme (human) (Homo sapiens, UniProt Q13315). Description: ATM kinase assay (HTRF, GST-cMyc-p53 substrate). In kind it is biochemical. The note with it: 0.5 h, read-out: Inh (%) of ATM kinase; for inhibition at 1 µM: C 1 μm (final concentration of compound). The protocol:
In Vitro Inhibition of ATM by N,N-dimethyl-3-(4-(1-(tetrahydro-2H-pyran-4-yl)-[1,2,4]triazolo[4,3-a]quinoxalin-8-yl)phenoxy)propan-1-amine and its Analogues was Determined by ATM Kinase Assay
The reaction was initiated by the addition of a Mg/ATP mixture and incubation for 30 minutes at room temperature, the reaction was quenched by the addition of a stop solution containing EDTA. Finally, the detection buffer containing the d2-labeled anti-GST monoclonal antibody and the europium-labeled anti-phospho p53 (Ser15) antibody was added. The plate was then read in time resolved fluorescence mode and the homogeneous time resolved fluorescence (HTRF) signal was determined according to the equation: HTRF=10000×(Em665nm/Em620nm). Each compound sample was repeated in duplicate. The experiment negative control was all components except of the ATM enzyme and the positive control contained all components. All reactions were quenched by adding EDTA.
ATM kinase inhibition was detected by using the method described above. The curve equation for calculating IC50 value is as follows:
[formula] • wherein, C is the concentration of compound and D is the slope factor.
(Time-resolved FRET reads energy transfer from a long-lived donor to a nearby acceptor.)

For test [1], the system named is human colon cancer cell SW620. Kind of test: MTT assay, growth of SW620 cells, compounds combined with CPT-11. In kind it is cell-based. The note with it: Homo sapiens, SW-620, 120 h; combined with CPT-11 (205 nM medium), 5 days, MTT. The procedure: Inhibitory effects of N,N-dimethyl-3-(4-(1-(tetrahydro-2H-pyran-4-yl)-[1,2,4]triazolo[4,3-a]quinoxalin-8-yl)phenoxy)propan-1-amine and its Analogues Combined with CPT-11 on the Growth of Human Colon Cancer Cell SW620 were Determined by MTT Assay
SW620 cells were digested by trypsinase, centrifuged at 800 rpm for 5 minutes, the supernatant was discarded, resuspended with fresh medium (RPMI 1640 medium+10% FBS) and counted. The cells were seeded into 96-well cell culture plate with appropriate cell density and incubated overnight in a 37° C. 5% CO2 incubator. The stock solutions of the tested compound and the reference compound AZD0156 were serially diluted to 8 concentrations by DMSO at the ratios of 1:3 and 1:10, respectively, the first concentration was 10 μM or 1 μM, and the last concentration was negative control of DMSO (0 μM, the final concentration of DMSO was 1%). 5 μL of each concentration was added to 120 μL of medium (25 times diluted) and mixed by shaking. The overnight cells were taken and the culture medium was removed, 195 μL of fresh medium containing 205 nM CPT-11 was added to each well, and 5 μL of diluted medium containing the corresponding concentration of the tested sample was added respectively, and the culture plate was then placed in the 5% CO2 cell culture incubator at 37° C. for 5 days. After removing the original solution, 100 pt of fresh serum-free DMEM medium containing MTT (0.5 mg/mL) was added to each well, the culture was continued. After 4 hours, the original solution was removed, 100 μL of DMSO was added into each well, the 96-well plates were shaken away from light for 10 minutes and placed in a multi-function reader to read the absorbance at the wavelength of 552/630/690 nm. GraphPad Prism 6.0 was used to analyze the data. The inhibitory activity of compounds on cell proliferation was plotted based on cell viability and compound concentration. The IC50 value was fitted by a sigmoidal dose response curve equation Y=100/(1+10^(Log C−Log IC50)), where C was the concentration of compound.
Table 3 summarizes the inhibitory effects of compounds combined with CPT-11 on the growth of human colon cancer cell SW620 (IC50).
Background: Formazan colour is commonly taken as a measure of viable cells.

Sequence of ATM enzyme (human) (Q13315 whole entry): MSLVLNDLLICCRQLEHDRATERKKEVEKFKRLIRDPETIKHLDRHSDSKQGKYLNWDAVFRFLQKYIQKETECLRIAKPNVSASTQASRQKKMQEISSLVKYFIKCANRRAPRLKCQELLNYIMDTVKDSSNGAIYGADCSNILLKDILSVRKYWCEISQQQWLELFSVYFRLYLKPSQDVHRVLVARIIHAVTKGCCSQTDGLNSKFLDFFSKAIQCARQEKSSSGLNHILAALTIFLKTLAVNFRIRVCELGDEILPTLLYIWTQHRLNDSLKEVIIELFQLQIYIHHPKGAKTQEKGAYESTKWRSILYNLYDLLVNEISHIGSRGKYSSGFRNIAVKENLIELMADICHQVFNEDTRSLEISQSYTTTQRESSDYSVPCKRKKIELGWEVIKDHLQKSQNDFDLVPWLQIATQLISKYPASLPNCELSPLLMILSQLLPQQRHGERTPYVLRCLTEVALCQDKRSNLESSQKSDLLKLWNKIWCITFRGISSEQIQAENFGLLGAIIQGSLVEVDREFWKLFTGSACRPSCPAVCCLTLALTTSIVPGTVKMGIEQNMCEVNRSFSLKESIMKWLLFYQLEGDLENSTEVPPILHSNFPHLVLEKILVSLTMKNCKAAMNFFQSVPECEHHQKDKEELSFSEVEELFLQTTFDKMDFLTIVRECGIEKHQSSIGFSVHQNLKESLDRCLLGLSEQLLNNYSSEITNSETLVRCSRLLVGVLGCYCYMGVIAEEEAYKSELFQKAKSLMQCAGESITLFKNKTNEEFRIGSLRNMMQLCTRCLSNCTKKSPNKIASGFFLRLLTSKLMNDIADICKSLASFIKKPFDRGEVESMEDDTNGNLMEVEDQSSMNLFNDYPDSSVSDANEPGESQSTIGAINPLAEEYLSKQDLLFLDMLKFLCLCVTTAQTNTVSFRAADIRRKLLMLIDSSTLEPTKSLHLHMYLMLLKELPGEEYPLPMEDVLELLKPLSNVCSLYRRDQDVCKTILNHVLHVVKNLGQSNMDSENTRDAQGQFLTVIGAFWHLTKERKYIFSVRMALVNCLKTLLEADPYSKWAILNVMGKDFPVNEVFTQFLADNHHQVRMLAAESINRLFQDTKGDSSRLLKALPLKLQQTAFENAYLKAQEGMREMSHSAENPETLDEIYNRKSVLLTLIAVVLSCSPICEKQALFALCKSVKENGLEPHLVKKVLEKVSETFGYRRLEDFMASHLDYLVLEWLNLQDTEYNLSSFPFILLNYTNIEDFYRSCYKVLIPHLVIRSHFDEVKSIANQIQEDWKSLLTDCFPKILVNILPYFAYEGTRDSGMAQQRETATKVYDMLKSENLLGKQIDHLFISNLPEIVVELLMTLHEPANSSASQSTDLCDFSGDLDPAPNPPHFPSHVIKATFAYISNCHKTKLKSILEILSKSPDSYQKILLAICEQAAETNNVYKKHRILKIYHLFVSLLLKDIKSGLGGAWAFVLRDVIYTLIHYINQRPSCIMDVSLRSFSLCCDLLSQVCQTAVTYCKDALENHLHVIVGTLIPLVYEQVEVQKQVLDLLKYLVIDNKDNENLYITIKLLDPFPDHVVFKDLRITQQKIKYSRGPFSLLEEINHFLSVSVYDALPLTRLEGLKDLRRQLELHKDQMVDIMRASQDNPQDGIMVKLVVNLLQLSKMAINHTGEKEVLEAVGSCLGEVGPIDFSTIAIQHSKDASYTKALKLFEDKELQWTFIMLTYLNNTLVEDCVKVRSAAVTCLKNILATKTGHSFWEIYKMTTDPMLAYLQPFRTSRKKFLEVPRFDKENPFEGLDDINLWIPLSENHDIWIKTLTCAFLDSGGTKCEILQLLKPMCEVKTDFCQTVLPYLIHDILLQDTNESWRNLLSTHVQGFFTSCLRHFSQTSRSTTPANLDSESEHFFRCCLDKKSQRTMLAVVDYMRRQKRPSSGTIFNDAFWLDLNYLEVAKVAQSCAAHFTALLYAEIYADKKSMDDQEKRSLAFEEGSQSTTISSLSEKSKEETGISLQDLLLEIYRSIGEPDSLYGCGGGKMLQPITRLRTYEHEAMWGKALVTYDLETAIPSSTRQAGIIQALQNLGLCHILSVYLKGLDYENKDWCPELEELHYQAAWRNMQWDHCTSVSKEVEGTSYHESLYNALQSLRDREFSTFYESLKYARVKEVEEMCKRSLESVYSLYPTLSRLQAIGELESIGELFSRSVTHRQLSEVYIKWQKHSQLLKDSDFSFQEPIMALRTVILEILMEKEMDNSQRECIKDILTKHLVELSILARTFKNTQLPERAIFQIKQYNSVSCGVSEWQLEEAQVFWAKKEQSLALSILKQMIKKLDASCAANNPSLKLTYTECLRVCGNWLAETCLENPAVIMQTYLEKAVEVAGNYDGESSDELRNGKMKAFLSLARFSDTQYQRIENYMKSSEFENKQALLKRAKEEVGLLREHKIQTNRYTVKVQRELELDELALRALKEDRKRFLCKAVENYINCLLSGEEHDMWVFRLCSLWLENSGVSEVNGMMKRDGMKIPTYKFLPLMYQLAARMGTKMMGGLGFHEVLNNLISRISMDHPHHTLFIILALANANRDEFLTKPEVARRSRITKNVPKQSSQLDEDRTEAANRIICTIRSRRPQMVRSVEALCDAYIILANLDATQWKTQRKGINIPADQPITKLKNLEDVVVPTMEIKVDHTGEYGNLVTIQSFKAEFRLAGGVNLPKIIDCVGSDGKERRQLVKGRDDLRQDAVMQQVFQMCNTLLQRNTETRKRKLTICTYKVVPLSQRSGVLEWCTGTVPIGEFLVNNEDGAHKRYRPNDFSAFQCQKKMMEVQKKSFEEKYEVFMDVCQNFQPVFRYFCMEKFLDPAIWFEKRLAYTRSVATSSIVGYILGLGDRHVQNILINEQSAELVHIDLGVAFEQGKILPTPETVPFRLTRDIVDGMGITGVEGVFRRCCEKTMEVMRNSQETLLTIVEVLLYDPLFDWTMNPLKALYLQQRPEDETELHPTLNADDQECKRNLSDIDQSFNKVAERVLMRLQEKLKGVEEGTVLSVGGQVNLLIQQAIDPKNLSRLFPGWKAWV

With `CN(C)CCCOc1ccc(-c2cnc3ncc4nnc(C5CCOCC5)n4c3c2)cn1` [Example 1, N,N-dimethyl-3-((5-(1-(tetrahydro-2H-pyran-4-yl)pyrido[2,3-e][1,2,4]triazolo[4,3-a]pyrazin-8-yl)pyridin-2-yl)oxy)propan-1-amine], the inhibition at 10 µM on ATM enzyme (human) (C 10 μm (final concentration of compound)) turned out to be 90%. Further, the IC50 in test [1] is > 100000 nM.
Take `CN(C)CCCOc1ccc(-c2cnc3ncc4nnc(C5CCOCC5)n4c3c2)cc1` [Example 2, N,N-dimethyl-3-(4-(1-(tetrahydro-2H-pyran-4-yl)pyrido[2,3-e][1,2,4]triazolo[4,3-a]pyrazin-8-yl)phenoxy)propan-1-amine]: at ATM enzyme (human), the inhibition at 1 µM turned out to be 57%. Moreover, in test [1], the IC50 is > 100000 nM.
The corresponding values for `CN(C)CCCOc1ncc(-c2ccc3ncc4nnc(C5CCOCC5)n4c3c2)cn1` [Example 6, N,N-dimethyl-3-((5-(1-(tetrahydro-2H-pyran-4-yl)-[1,2,4]triazolo[4,3-a]quinoxalin-8-yl)pyrimidin-2-yl)oxy)propan-1-amine] are 57% and > 100000 nM.
As to `CN(C)CCCOc1cnc(-c2ccc3ncc4nnc(C5CCOCC5)n4c3c2)nc1` [Example 7, N,N-dimethyl-3-((2-(1-(tetrahydro-2H-pyran-4-yl)-[1,2,4]triazolo[4,3-a]quinoxalin-8-yl)pyrimidin-5-yl)oxy)propan-1-amine], the inhibition at 1 µM at ATM enzyme (human) was found to be 40%. Further, the IC50 in test [1] amounted to 3100 nM.
With `CN(C)CCCOc1cnc(-c2ccc3ncc4nnc(C5CCOCC5)n4c3c2)cn1` [Example 8, N,N-dimethyl-3-((5-(1-(tetrahydro-2H-pyran-4-yl)-[1,2,4]triazolo[4,3-a]quinoxalin-8-yl)pyrazin-2-yl)oxy)propan-1-amine], the inhibition at 1 µM at ATM enzyme (human) is 38%. The IC50 in test [1] turned out to be 3300 nM.
For the molecule `CN(C)CCOc1ccc(-c2ccc3ncc4nnc(C5CCOCC5)n4c3c2)cc1` [Example 9, N,N-dimethyl-2-(4-(1-(tetrahydro-2H-pyran-4-yl)-[1,2,4]triazolo[4,3-a]quinoxalin-8-yl)phenoxy)ethan-1-amine], the inhibition at 1 µM on ATM enzyme (human) came to 72%. Further, the IC50 in test [1] came to 1940 nM.
On the same counts, the results for `CN(C)CCCNc1ccc(-c2ccc3ncc4nnc(C5CCOCC5)n4c3c2)cc1` [Example 10, N-(3-(dimethylamino)propyl)-4-(1-(tetrahydro-2H-pyran-4-yl)-[1,2,4]triazolo[4,3-a]quinoxalin-8-yl)aniline] are 85% and 5210 nM.
With `CN1CCN(c2ccc(-c3ccc4ncc5nnc(C6CCOCC6)n5c4c3)cc2)CC1` [Example 13, 8-(4-(4-methylpiperazin-1-yl)phenyl)-1-(tetrahydro-2H-pyran-4-yl)-[1,2,4]triazolo[4,3-a]quinoxaline], the inhibition at 0.01 µM at ATM enzyme (human) (C 0.01 μm (final concentration of compound)) is 8%. For the same molecule, the inhibition at 0.1 µM at ATM enzyme (human) (C 0.1 μm (final concentration of compound)) was 49%. Moreover, the inhibition at 1 µM at ATM enzyme (human) was found to be 93%. Further, in test [1], the IC50 was > 100000 nM.
With `C[C@@H]1CN(c2nnc3cnc4ccc(-c5ccc(OCCCN(C)C)nc5)cc4n23)C[C@H](C)N1C` [Example 26, N,N-dimethyl-3-((5-(1-((3S,5R)-3,4,5-trimethylpiperazin-1-yl)-[1,2,4]triazolo[4,3-a]quinoxalin-8-yl)pyridin-2-yl)oxy)propan-1-amine], the IC50 in test [1] is 57 nM.
On to `CNC1CCN(c2ccc(-c3ccc4ncc5nnc(N6C[C@@H](C)N(C)[C@@H](C)C6)n5c4c3)cc2F)CC1` [Example 94, N-methyl-1-(2-fluoro-4-(1-((3S,5R)-3,4,5-trimethylpiperazin-1-yl)-[1,2,4]triazolo[4,3-a]quinoxalin-8-yl)phenyl)piperidin-4-amine], for which the IC50 in test [1] amounted to 13 nM.
Still for that read-out and setting: the same measure for `CCNC1CCN(c2ccc(-c3ccc4ncc5nnc(N6C[C@@H](C)N(C)[C@@H](C)C6)n5c4c3)cc2F)CC1` [Example 96, N-ethyl-1-(2-fluoro-4-(1-((3S,5R)-3,4,5-trimethylpiperazin-1-yl)-[1,2,4]triazolo[4,3-a]quinoxalin-8-yl)phenyl)piperidin-4-amine]: 15 nM; for `C[C@@H]1CN(c2nnc3cnc4ccc(-c5ccc(OCCCN(C)C)c(C(F)(F)F)c5)cc4n23)C[C@H](C)O1` [Example 102, N,N-dimethyl-3-(2-(trifluoromethyl)-4-(1-((2S,6R)-2,6-dimethylmorpholino)-[1,2,4]triazolo[4,3-a]quinoxalin-8-yl)phenoxy)propan-1-amine]: 21.1 nM.
In the case of `C[C@@H]1CN(c2nnc3cnc4ccc(-c5ccc(N6CCC(N(C)C)CC6)cc5)cc4n23)C[C@H](C)O1` [Example 103, 1-(4-(1-((2S,6R)-2,6-dimethylmorpholino)-[1,2,4]triazolo[4,3-a]quinoxalin-8-yl)phenyl)-N,N-dimethylpiperidin-4-amine], the IC50 in test [1] was 176 nM.
Same read-out and setting: the same measure for `C[C@@H]1CN(c2nnc3cnc4ccc(-c5ccc(N6CCC(N(C)C)CC6)c(F)c5)cc4n23)C[C@H](C)O1` [Example 104, 1-(4-(1-((2S,6R)-2,6-dimethylmorpholino)-[1,2,4]triazolo[4,3-a]quinoxalin-8-yl)-2-fluorophenyl)-N,N-dimethylpiperidin-4-amine]: 28.2 nM.
The same measure, in the same setting: in the case of `CN(C)CCCOc1ccc(-c2ccc3ncc4nnc(N5CCCCC5)n4c3c2)cc1C(F)(F)F` [Example 111, N,N-dimethyl-3-(4-(1-(piperidin-1-yl)-[1,2,4]triazolo[4,3-a]quinoxalin-8-yl)-2-(trifluoromethyl)phenoxy)propan-1-amine] it was 16.2 nM; in that of `CN(C)C1CCN(c2ccc(-c3ccc4ncc5nnc(N6CCCCC6)n5c4c3)cc2F)CC1` [Example 112, 1-(2-fluoro-4-(1-(piperidin-1-yl)-[1,2,4]triazolo[4,3-a]quinoxalin-8-yl)phenyl)-N,N-dimethylpiperidin-4-amine], 21.9 nM; in that of `CNC1CCN(c2ccc(-c3ccc4ncc5nnc(N6C[C@@H](C)N(C)[C@@H](C)C6)n5c4n3)cc2F)CC1` [Example 117, 1-(2-fluoro-4-(9-((3S,5R)-3,4,5-trimethylpiperazin-1-yl)pyrido[3,2-e][1,2,4]triazolo[4,3-a]pyrazin-2-yl)phenyl)-N-methylpiperidin-4-amine], 47.5 nM.
Take `CCNC1CCN(c2ccc(-c3ccc4ncc5nnc(N6C[C@@H](C)N(C)[C@@H](C)C6)n5c4n3)cc2F)CC1` [Example 119, N-ethyl-1-(2-fluoro-4-(9-((3S,5R)-3,4,5-trimethylpiperazin-1-yl)pyrido[3,2-e][1,2,4]triazolo[4,3-a]pyrazin-2-yl)phenyl)piperidin-4-amine]: the IC50 in test [1] worked out at 43.1 nM.
In the case of `CN(C)CCCOc1ccc(-c2ccc3ncc4nnc(C5CCOCC5)n4c3n2)cc1F` [Example 139, 3-(2-fluoro-4-(9-(tetrahydro-2H-pyran-4-yl)pyrido[3,2-e][1,2,4]triazolo[4,3-a]pyrazin-2-yl)phenoxy)-N,N-dimethylpropan-1-amine], in test [1], the IC50 worked out at 262 nM.
Same read-out and setting: the same measure for `CN(C)CCCOc1ccc(-c2ccc3ncc4nnc(C5CCOCC5)n4c3n2)cc1Cl` [Example 140, 3-(2-chloro-4-(9-(tetrahydro-2H-pyran-4-yl)pyrido[3,2-e][1,2,4]triazolo[4,3-a]pyrazin-2-yl)phenoxy)-N,N-dimethylpropan-1-amine]: 213 nM.
